In ChEMBL document CHEMBL2034916, “Thiourea compound AW00178 sensitizes human H1299 lung carcinoma cells to TRAIL-mediated apoptosis” (2012):
Active and inactive are the calls of the source. The rule behind the calls is not given here.

How the values were obtained:
[1] = Down regulation of cIAP2 expression in human H1299 cells at 0.1 to 30 uM after 24 hrs by Western blot analysis; format: functional, cell-based; settings: NCI-H1299
[2] = test system: H1299; assay: Inhibition of Akt phosphorylation on human H1299 cells after 24 hrs by Western blot analysis; format: cell-based
[3] = Down regulation of cIAP2 expression in human H1299 cells at 0.1 to 30 uM after 24 hrs by Western blot analysis in presence of 100 ug/ml TRAIL and PI3K inhibitor LY294002; format: functional, cell-based; settings: NCI-H1299
[4] = test system: NCI-H1299; assay: Induction of DR5 expression in human H1299 cells at 0.1 to 30 uM after 24 hrs by Western blot analysis; format: functional, cell-based
[5] = test system: H1299; assay: Inhibition of Akt in human H1299 cells assessed as decrease in survivin expression after 24 hrs by Western blot analysis; format: cell-based
[6] = biological target: T1, c-Jun N-terminal kinase, JNK (Homo sapiens) (UniProt P45983+P53779+P45984); assay: Induction of JNK-mediated CHOP expression in human H1299 cells at 0.1 to 30 uM after 24 hrs by Western blot analysis; format: cell-based
[7] = biological target: T1, c-Jun N-terminal kinase, JNK (Homo sapiens); assay: Induction of JNK-mediated CHOP protein expression in human H1299 cells after 24 hrs by Western blot analysis; format: cell-based
[8] = test system: NCI-H1299; assay: Induction of apoptosis in human H1299 cells assessed as apoptotic cells at 10 uM after 48 hrs by annexinV/propidium iodide staining-based flow cytometric analysis (reference value: 1.35%); format: functional
[9] = biological target: T1, c-Jun N-terminal kinase, JNK (Homo sapiens); assay: Induction of JNK-mediated c-Jun phosphorylation in human H1299 cells at 5 to 10 uM after 24 hrs by Western blot analysis; format: cell-based
[10] = Down regulation of XIAP expression in human H1299 cells at 0.1 to 30 uM after 24 hrs by Western blot analysis in presence of 100 ug/ml TRAIL and PI3K inhibitor LY294002; format: functional, cell-based; settings: NCI-H1299
[11] = Down regulation of cIAP2 expression in human H1299 cells at 10 uM after 24 hrs by Western blot analysis in presence of 100 ug/ml TRAIL; format: functional, cell-based; settings: NCI-H1299
[12] = Down regulation of AKT-mediated survivin expression in human H1299 cells at 5 to 10 uM after 24 hrs by Western blot analysis; format: cell-based
[13] = Down regulation of Bcl-Xl expression in human H1299 cells at 10 uM after 24 hrs by Western blot analysis in presence of 100 ug/ml TRAIL; format: functional, cell-based; settings: NCI-H1299
[14] = test system: NCI-H1299; assay: Induction of apoptosis in human H1299 cells assessed as apoptotic cells at 10 uM after 48 hrs by annexinV/propidium iodide staining-based flow cytometric analysis in presence of 100 ug/ml TRAIL (reference value: 1.35%); format: functional
[15] = test system: NCI-H1299; assay: Induction of apoptosis in human H1299 cells assessed as apoptotic cells at 5 uM after 48 hrs by annexinV/propidium iodide staining-based flow cytometric analysis (reference value: 1.35%); format: functional
[16] = test system: NCI-H1299; assay: Induction of apoptosis in human H1299 cells assessed as apoptotic cells at 5 uM after 48 hrs by annexinV/propidium iodide staining-based flow cytometric analysis in presence of 100 ug/ml TRAIL (reference value: 1.35%); format: functional
[17] = test system: NCI-H1299; assay: Induction of TRAIL-mediated apoptosis in human H1299 cells assessed as caspase 8 activation at 5 to 10 uM after 24 hrs by fluorometric assay; format: functional, cell-based
[18] = test system: NCI-H1299; assay: Induction of TRAIL-mediated apoptosis in human H1299 cells assessed as caspase 8 activation at 5 to 10 uM after 24 hrs by fluorometric assay in presence of pan-caspase inhibitor Z-VAD-FMK; format: functional, cell-based
[19] = biological target: T1, c-Jun N-terminal kinase, JNK (Homo sapiens); assay: Induction of JNK-mediated c-Jun phosphorylation in human H1299 cells at 5 to 10 uM after 24 hrs by Western blot analysis in presence of 100 ug/ml TRAIL; format: cell-based
[20] = Down regulation of XIAP expression in human H1299 cells at 5 to 10 uM after 24 hrs by Western blot analysis; format: functional, cell-based; settings: NCI-H1299
[21] = Down regulation of XIAP expression in human H1299 cells at 0.1 to 30 uM after 24 hrs by Western blot analysis; format: functional, cell-based; settings: NCI-H1299
[22] = Upregulation of CHOP in human H1299 cells at 10 uM after 24 hrs by Western blot analysis in presence of 100 ug/ml TRAIL and pretreated with 10 uM JNK inhibition SP600125; format: functional, cell-based; settings: NCI-H1299
[23] = test system: NCI-H1299; assay: Induction of DR5 protein expression in human H1299 cells after 24 hrs by Western blot analysis; format: functional, cell-based
[24] = test system: H1299; assay: Inhibition of Akt phosphorylation in human H1299 cells at 5 to 10 uM after 24 hrs by Western blot analysis in presence of 100 ug/ml TRAIL; format: cell-based
[25] = test system: H1299; assay: Inhibition of Akt phosphorylation in human H1299 cells at 5 to 10 uM after 24 hrs by Western blot analysis; format: cell-based
[26] = Down regulation of cIAP1 expression in human H1299 cells at 10 uM after 24 hrs by Western blot analysis in presence of 100 ug/ml TRAIL; format: functional, cell-based; settings: NCI-H1299
[27] = biological target: T1, c-Jun N-terminal kinase, JNK (Homo sapiens); assay: Induction of JNK-mediated c-Jun phosphorylation in human H1299 cells at 10 uM for 30 mins cotreated with TRAIL by Western blot analysis pretreated with 10 uM JNK inhibitor SP600125 for 1 hr; format: cell-based
[28] = Down regulation of AKT-mediated survivin expression in human H1299 cells at 5 to 10 uM after 24 hrs by Western blot analysis in presence of 100 ug/ml TRAIL; format: cell-based
[29] = Down regulation of XIAP expression in human H1299 cells at 5 to 10 uM after 24 hrs by Western blot analysis in presence of 100 ug/ml TRAIL; format: functional, cell-based; settings: NCI-H1299

Compound: O=c1cc(N2CCOCC2)oc2c(-c3ccccc3)cccc12
- Activity [1]: Active
- inhibition [2]: Dose-dependent effect
- Activity [3]: Active
- Activity [4]: inactive
- inhibition [5]: Dose-dependent effect
- Activity [6]: inactive

Compound: Cc1ccc(Cl)cc1NC(=S)Nc1ccc(-n2nccc2C(F)(F)F)cc1
- Activity [7]: Active
- Activity [8]: 3.25%
- Activity [9]: Active
- Activity [10]: Active
- Activity [11]: Active
- Activity [12]: Active
- Activity [13]: Active
- Activity [14]: 39.4%
- Activity [15]: 1.52%
- Activity [16]: 6.59%
- Activity [17]: Active
- Activity [18]: inactive
- Activity [19]: Active
- Activity [20]: Active
- Activity [21]: Active
- Activity [22]: inactive
- Activity [23]: Active
- inhibition [24]: Active
- inhibition [25]: Active
- Activity [26]: Active
- Activity [27]: Active
- Activity [28]: Active
- Activity [29]: Active
